This note sets out measurements from PubChem BioAssay (NCI).

Among the test systems are A549 NSCLC; SK-MEL-5 melanoma; 786-0 renal; A498 renal; HL-60(TB) leukemia; CAKI-1 renal; SW-620 colon; MDA-MB-435; T-47D breast; UACC-257 melanoma.
Holding throughout (assay): NCI-60 cell line screen, 48 h

Where “and” joins values, the source holds several entries; their conditions need not be identical. Identical values can stand only once.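 These data come from cells grown in 96-well plates and exposed to compound for 48 hours at five concentrations. GI50 marks 50% less growth. TGI is the concentration that stops growth completely.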 Some results are limits rather than exact numbers.

As for `CNC(=O)OCc1c(COC(=O)NC)c(-c2ccc(-c3ccccc3)cc2)n(C)c1C`, the TGI is 14.1 µM in the experiment on A549 NSCLC; 14 µM with SK-MEL-5 melanoma; 10.2 µM in the experiment on 786-0 renal; 2.39 µM with A498 renal; 18.1 µM in the experiment on HL-60(TB) leukemia; 5.14 µM in the experiment on CAKI-1 renal. In addition, the TGI in the experiment on SW-620 colon was found to be 28.3 µM; in the experiment with MDA-MB-435, 21.9 µM; with T-47D breast it was 35.2 µM; in the experiment with UACC-257 melanoma, 37.3 µM.
`C[C@]12CCc3sc(Nc4ccc(OC(F)(F)F)cc4)nc3C1=CC[C@@H]1[C@@H]2CC[C@]2(C)C(=O)CC[C@@H]12`: the GI50 with A549 NSCLC is 3.35 µM; in the experiment with SK-MEL-5 melanoma, 2.62 µM; with 786-0 renal, 1.45 µM; with A498 renal, 2090 nM; in the experiment with HL-60(TB) leukemia, 1930 nM; with CAKI-1 renal it was 3.21 µM. Moreover, the GI50 is 2210 nM in the experiment with SW-620 colon, 2720 nM in the experiment on MDA-MB-435, 2.15 µM with T-47D breast and 4.89 µM with UACC-257 melanoma. For the same compound, the TGI turned out to be 16.1 µM in the experiment on A549 NSCLC; 7.41 µM with SK-MEL-5 melanoma; 3.28 µM in the experiment with 786-0 renal; 5.77 µM in the experiment on A498 renal; 4.44 µM in the experiment with HL-60(TB) leukemia; 13.2 µM with CAKI-1 renal. Further, the TGI in the experiment with SW-620 colon was found to be 5 µM; in the experiment with MDA-MB-435, 10.1 µM; with T-47D breast, 6.43 µM; in the experiment with UACC-257 melanoma it was 28.8 µM.
As to `NC(CSC(c1ccccc1)(c1ccccc1)c1ccccc1)C(=O)NCC(=O)O` (stereo not drawn), the GI50 with A549 NSCLC was 8 µM; in the experiment on SK-MEL-5 melanoma, 3.4 µM; with 786-0 renal, 6.78 µM; in the experiment with A498 renal, 4310 nM; with HL-60(TB) leukemia it was 2850 nM; in the experiment on CAKI-1 renal it was 37.1 µM. Moreover, the GI50 is 3590 nM with SW-620 colon, 2380 nM in the experiment with MDA-MB-435, 11.6 µM in the experiment on T-47D breast and 5.19 µM with UACC-257 melanoma. For the same compound, the TGI with A549 NSCLC was more than 100 µM; with SK-MEL-5 melanoma, 31.4 µM; in the experiment with 786-0 renal, more than 100 µM; in the experiment with A498 renal, 86.1 µM; in the experiment on HL-60(TB) leukemia, 12 µM; in the experiment on CAKI-1 renal, more than 100 µM. The TGI was more than 100 µM with SW-620 colon, 6.8 µM in the experiment with MDA-MB-435, more than 100 µM in the experiment with T-47D breast and more than 100 µM in the experiment on UACC-257 melanoma.
In the case of `Cc1cc(N(CC(C)Br)CC(C)Br)ccc1N=Nc1ccccc1C(=O)O` (stereo not drawn), the TGI came to 19.9 µM in the experiment with A549 NSCLC; 14.6 µM with SK-MEL-5 melanoma; 16.4 µM in the experiment on 786-0 renal; 3.91 µM with A498 renal; 36.6 µM in the experiment with HL-60(TB) leukemia; 6.9 µM with CAKI-1 renal. In addition, the TGI in the experiment on SW-620 colon was more than 84.1 µM; in the experiment on MDA-MB-435, 33.5 µM; in the experiment on T-47D breast, 5 µM; in the experiment with UACC-257 melanoma, 19 µM.
As for `CCCCCCCCn1ccc2cc(NC(=O)Cn3cc(CN4CCCCCC4)nn3)ccc21`, the GI50 in the experiment with A549 NSCLC is 1.77 µM; in the experiment with SK-MEL-5 melanoma, 1.74 µM; in the experiment on 786-0 renal, 1.68 µM; in the experiment with A498 renal, 1760 nM; with HL-60(TB) leukemia, 1870 nM; in the experiment on CAKI-1 renal it was 1.49 µM. The GI50 was 1730 nM in the experiment with SW-620 colon, 1690 nM with MDA-MB-435, 1.66 µM with T-47D breast and 1.91 µM in the experiment on UACC-257 melanoma. Moreover, the TGI came out at 3.36 µM in the experiment with A549 NSCLC; 3.13 µM in the experiment on SK-MEL-5 melanoma; 3.07 µM with 786-0 renal; 3.2 µM in the experiment on A498 renal; 3.75 µM in the experiment on HL-60(TB) leukemia; 2.89 µM in the experiment with CAKI-1 renal. The TGI is 3.33 µM with SW-620 colon, 3.18 µM with MDA-MB-435, 3.78 µM in the experiment with T-47D breast and 3.58 µM in the experiment on UACC-257 melanoma.
Take `CCCCCCCCCCCCCCCCCCOC[C@H](COP(=O)(O)O[C@H]1[C@H](O)[C@@H](O)[C@H](O)C[C@H]1O)OC`: the GI50 in the experiment with A549 NSCLC is > 100 µM and 15 µM; in the experiment on SK-MEL-5 melanoma it was > 100 µM and 18 µM; in the experiment on 786-0 renal, > 100 µM and 15.9 µM; in the experiment on HL-60(TB) leukemia it was 35000 nM and 9090 nM; with CAKI-1 renal it was 87.4 µM and 9.51 µM; in the experiment with MDA-MB-435 it was 65900 nM and 11800 nM. Further, the GI50 with T-47D breast is > 100 µM and 16.9 µM; in the experiment with UACC-257 melanoma, > 100 µM and 17 µM. Besides, the TGI in the experiment with A549 NSCLC was > 100 µM and 28.8 µM; with SK-MEL-5 melanoma, > 100 µM and 32.3 µM; with 786-0 renal, > 100 µM and 57.8 µM; in the experiment on A498 renal, more than 100 µM; in the experiment on HL-60(TB) leukemia it was > 100 µM and 23.3 µM; in the experiment with CAKI-1 renal it was > 100 µM and 25.1 µM. Besides, the TGI is > 100 µM and 39.3 µM with SW-620 colon; > 100 µM and 43.8 µM in the experiment on MDA-MB-435; > 100 µM and 37.4 µM with T-47D breast; > 100 µM and 31.5 µM with UACC-257 melanoma.
For `C=C1c2c(C)nn(-c3ccc(C#CCOC4OC(CO)C(O)C(O)C4O)cc3)c2N(C)C23C[C@H]1C1(C)c4c(C)nn(-c5ccc(C#CCOC6OC(CO)C(O)C(O)C6O)cc5)c4N(C)C(C)(C[C@H]12)C3` (stereo partly drawn), the GI50 is 1.68 µM with A549 NSCLC; 1.38 µM in the experiment on SK-MEL-5 melanoma; 2.66 µM in the experiment with 786-0 renal; 1500 nM with A498 renal; 2070 nM with HL-60(TB) leukemia; 2.81 µM in the experiment with CAKI-1 renal. The GI50 in the experiment with SW-620 colon was 1720 nM; in the experiment on MDA-MB-435, 1670 nM; in the experiment with T-47D breast, 0.687 µM; with UACC-257 melanoma, 1.82 µM. For the same compound, the TGI in the experiment with A549 NSCLC worked out at 4.09 µM; in the experiment with SK-MEL-5 melanoma, 2.71 µM; in the experiment with 786-0 renal, 7.78 µM; in the experiment on A498 renal, 3.18 µM; in the experiment with HL-60(TB) leukemia it was 4.43 µM; in the experiment on CAKI-1 renal it was 11.6 µM. Besides, the TGI with SW-620 colon was 3.77 µM; with MDA-MB-435, 3.77 µM; in the experiment with T-47D breast, 6.8 µM; in the experiment with UACC-257 melanoma, 4.56 µM.
`COCCOC(=O)C1=C(O)c2ccccc2S(=O)(=O)N1C`: the TGI in the experiment on A549 NSCLC, in the experiment on SK-MEL-5 melanoma, with 786-0 renal, in the experiment on A498 renal, in the experiment with HL-60(TB) leukemia and with CAKI-1 renal was more than 100 µM throughout. Moreover, the TGI in the experiment with SW-620 colon, with MDA-MB-435, in the experiment on T-47D breast and with UACC-257 melanoma was more than 100 µM each time.
With `O=C(O)c1ccc(CN2CCC(CN[C@@H]3C[C@H]3c3ccccc3)CC2)cc1`, the GI50 in the experiment with A549 NSCLC is more than 100 µM; in the experiment with SK-MEL-5 melanoma, more than 100 µM; in the experiment on 786-0 renal, more than 100 µM; in the experiment with A498 renal it was more than 100000 nM; in the experiment on HL-60(TB) leukemia, more than 100000 nM; in the experiment with CAKI-1 renal, more than 100 µM. The GI50 was more than 100000 nM with SW-620 colon, more than 100000 nM in the experiment with MDA-MB-435, more than 100 µM in the experiment on T-47D breast and more than 100 µM with UACC-257 melanoma. In addition, the TGI in the experiment on A549 NSCLC, in the experiment with SK-MEL-5 melanoma, in the experiment on 786-0 renal, with A498 renal, in the experiment with HL-60(TB) leukemia and in the experiment on CAKI-1 renal was more than 100 µM in each case. The TGI in the experiment with SW-620 colon, in the experiment on MDA-MB-435, in the experiment with T-47D breast and in the experiment on UACC-257 melanoma was more than 100 µM throughout.
